Data: article PMC12063423, “Identification of the methionine transporter MetQ in Streptococcus suis and its contribution to virulence and biofilm formation” (Veterinary Research, 2025)

Target: T1, MetQ (SSU1577) (Streptococcus suis, UniProt A0A0H3N1C6)
T1 construct: gene SSUBM407_1651; mature protein aa 31-283 without signal peptide (1-29) and lipobox Cys30; codon-optimised, pET16b, E. coli BL21(DE3); full-length precursor 283 aa
Experiment: isothermal titration calorimetry, one-site model
Type: binding
Conditions: PBS pH 7.3, 25 °C; 38.8 µM protein in cell, 200 µM ligand in syringe

T1 sequence (A0A0H3N1C6 entry or part of it): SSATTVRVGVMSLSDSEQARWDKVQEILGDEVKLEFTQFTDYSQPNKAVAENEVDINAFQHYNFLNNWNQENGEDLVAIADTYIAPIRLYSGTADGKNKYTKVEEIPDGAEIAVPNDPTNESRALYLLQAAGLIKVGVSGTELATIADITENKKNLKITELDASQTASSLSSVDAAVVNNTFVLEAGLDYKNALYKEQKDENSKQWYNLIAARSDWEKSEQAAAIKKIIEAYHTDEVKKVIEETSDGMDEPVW

CSCC[C@H](N)C(=O)O [L-methionine]
Kd: 7.1 µM
